Test results reported in patent US20240050428A1 (Cullgen (Shanghai), Inc., priority 2020, published 2024).
Like-named read-outs stand apart in the source and are kept apart here.

What was measured:
MV4;11 cells = assay: Cell viability assay (CellTiter-Glo) in MV4;11 cells, alone or with gilteritinib; format: cell-based; details: Homo sapiens, read-out: MV4
MOLM-13 cells = assay: Cell viability assay (CellTiter-Glo) in MOLM-13 cells, alone or with gilteritinib; format: cell-based; details: Homo sapiens
[1] = MV4-11, 72 h, MV4;11 cells, compound alone (without gilteritinib), three days, CellTiter-Glo, 11 IC50
[2] = MV4-11, 72 h, MV4;11 cells, compound with gilteritinib 10 nM, three days, CellTiter-Glo, 11 IC50 gilteritinib
[3] = MOLM-13, 72 h, MOLM-13 cells, compound alone (without gilteritinib), three days, CellTiter-Glo, read-out: MOLM-13 IC50
[4] = MOLM-13, 72 h, MOLM-13 cells, compound with gilteritinib 20 nM, three days, CellTiter-Glo, read-out: MOLM-13 IC50 gilteritinib
[5] = 72 h, MV4;11 cells, compound alone (without gilteritinib), three days, CellTiter-Glo, 11 IC50
[6] = 72 h, MV4;11 cells, compound with gilteritinib 10 nM, three days, CellTiter-Glo, 11 IC50 gilteritinib
[7] = 72 h, MOLM-13 cells, compound alone (without gilteritinib), three days, CellTiter-Glo, read-out: MOLM-13 IC50
[8] = 72 h, MOLM-13 cells, compound with gilteritinib 20 nM, three days, CellTiter-Glo, read-out: MOLM-13 IC50 gilteritinib

O=C1CCC(N2Cc3c(CNC(=O)c4cccc(N5CCC(n6cc(-c7cnc8ccccc8n7)cn6)CC5)c4)cccc3C2=O)C(=O)N1 (stereo not drawn) [GS-509, N-((2-(2,6-Dioxopiperidin-3-yl)-1-oxoisoindolin-4-yl)methyl)-3-(4-(4-(quinoxalin-2-yl)-1H-pyrazol-1-yl)piperidin-1-yl)benzamide]
IC50 (MV4;11 cells; MV4-11, 72 h, 11 IC50): < 10 nM
IC50 (MV4;11 cells; MV4-11, 72 h, 11 IC50 gilteritinib): < 10 nM
IC50 (MOLM-13 cells; MOLM-13, 72 h, read-out: MOLM-13 IC50): < 10 nM
IC50 (MOLM-13 cells; MOLM-13, 72 h, read-out: MOLM-13 IC50 gilteritinib): < 10 nM

Cc1nn(CCCCCCNc2ccc3c(c2)C(=O)N(C2CCC(=O)NC2=O)C3=O)c(C)c1-c1cnc2ccccc2n1 (stereo not drawn) [GS-510, 5-((6-(3,5-Dimethyl-4-(quinoxalin-2-yl)-1H-pyrazol-1-yl)hexyl)amino)-2-(2,6-dioxopiperidin-3-yl)isoindoline-1,3-dione]
IC50 (MV4;11 cells; [1]): 100 to 1000 nM
IC50 (MV4;11 cells; [2]): < 10 nM
IC50 (MOLM-13 cells; [3]): > 1000 nM
IC50 (MOLM-13 cells; [4]): < 10 nM

Cc1cccc2ncc(-c3cnn(CCCCCCNc4ccc5c(c4)C(=O)N(C4CCC(=O)NC4=O)C5=O)c3)nc12 (stereo not drawn) [GS-511, 2-(2,6-Dioxopiperidin-3-yl)-5-((6-(4-(8-methylquinoxalin-2-yl)-1H-pyrazol-1-yl)hexyl)amino)isoindoline-1,3-dione]
IC50 (MV4;11 cells; [1]): 100 to 1000 nM
IC50 (MV4;11 cells; [2]): 10 to 100 nM
IC50 (MOLM-13 cells; [3]): 100 to 1000 nM
IC50 (MOLM-13 cells; [4]): < 10 nM

Cc1cccc2nc(-c3cnn(CCCCCCNc4ccc5c(c4)C(=O)N(C4CCC(=O)NC4=O)C5=O)c3)cnc12 (stereo not drawn) [GS-512, 2-(2,6-dioxopiperidin-3-yl)-5-((6-(4-(5-methylquinoxalin-2-yl)-1H-pyrazol-1-yl)hexyl)amino)isoindoline-1,3-dione]
IC50 (MV4;11 cells; [1]): 10 to 100 nM
IC50 (MV4;11 cells; [2]): 10 to 100 nM
IC50 (MOLM-13 cells; [3]): 10 to 100 nM
IC50 (MOLM-13 cells; [4]): < 10 nM

O=C1CCC(N2Cc3cc(NC(=O)c4cccc(N5CCC(n6cc(-c7cnc8ccccc8n7)cn6)CC5)c4)ccc3C2=O)C(=O)N1 (stereo not drawn) [GS-513, N-(2-(2,6-Dioxopiperidin-3-yl)-1-oxoisoindolin-5-yl)-3-(4-(4-(quinoxalin-2-yl)-1H-pyrazol-1-yl)piperidin-1-yl)benzamide]
IC50 (MV4;11 cells; [1]): < 10 nM
IC50 (MV4;11 cells; [2]): < 10 nM
IC50 (MOLM-13 cells; [3]): < 10 nM
IC50 (MOLM-13 cells; [4]): < 10 nM

O=C1CCC(N2Cc3cc(CNC(=O)Nc4cccc(N5CCC(c6ccccc6)CC5)c4)ccc3C2=O)C(=O)N1 (stereo not drawn) [GS-514, 1-((2-(2,6-Dioxopiperidin-3-yl)-1-oxoisoindolin-5-yl)methyl)-3-(3-(4-phenylpiperidin-1-yl)phenyl)urea]
IC50 (MV4;11 cells; [5]): < 10 nM
IC50 (MV4;11 cells; [6]): < 10 nM
IC50 (MOLM-13 cells; [7]): < 10 nM
IC50 (MOLM-13 cells; [8]): < 10 nM

O=C1CCC(N2Cc3cc(NCCCCC(=O)N4CCC(n5cc(-c6cnc7ccccc7n6)cn5)CC4)ccc3C2=O)C(=O)N1 (stereo not drawn) [GS-515, 3-(1-Oxo-5-((5-oxo-5-(4-(4-(quinoxalin-2-yl)-1H-pyrazol-1-yl)piperidin-1-yl)pentyl)amino)isoindolin-2-yl)piperidine-2,6-dione]
IC50 (MV4;11 cells; [1]): > 1000 nM
IC50 (MV4;11 cells; [2]): 10 to 100 nM
IC50 (MOLM-13 cells; [3]): > 1000 nM
IC50 (MOLM-13 cells; [4]): 100 to 1000 nM

Cc1ccccc1-c1cnn(CCCCCCNc2ccc3c(c2)C(=O)N(C2CCC(=O)NC2=O)C3=O)c1 (stereo not drawn) [GS-516, 2-(2,6-Dioxopiperidin-3-yl)-5-((6-(4-(o-tolyl)-1H-pyrazol-1-yl)hexyl)amino)isoindoline-1,3-dione]
IC50 (MV4;11 cells; [1]): 100 to 1000 nM
IC50 (MV4;11 cells; [2]): 10 to 100 nM
IC50 (MOLM-13 cells; [3]): > 1000 nM
IC50 (MOLM-13 cells; [4]): 10 to 100 nM

O=C1CCC(N2C(=O)c3ccc(NCCCCCCn4cc(-c5cnc6cc(Br)ccc6n5)cn4)cc3C2=O)C(=O)N1 (stereo not drawn) [GS-517, 5-((6-(4-(6-Bromoquinoxalin-2-yl)-1H-pyrazol-1-yl)hexyl)amino)-2-(2,6-dioxopiperidin-3-yl)isoindoline-1,3-dione]
IC50 (MV4;11 cells; [1]): 100 to 1000 nM
IC50 (MV4;11 cells; [2]): 10 to 100 nM
IC50 (MOLM-13 cells; [3]): 100 to 1000 nM
IC50 (MOLM-13 cells; [4]): 10 to 100 nM

O=C(CCC(F)(F)C(=O)N1CCC(n2cc(-c3cnc4ccccc4n3)cn2)CC1)NCc1ccc2c(c1)CN(C1CCC(=O)NC1=O)C2=O (stereo not drawn) [GS-518, N-((2-(2,6-Dioxopiperidin-3-yl)-1-oxoisoindolin-5-yl)methyl)-4,4-difluoro-5-oxo-5-(4-(4-(quinoxalin-2-yl)-1H-pyrazol-1-yl)piperidin-1-yl)pentanamide]
IC50 (MV4;11 cells; [1]): 10 to 100 nM
IC50 (MV4;11 cells; [2]): < 10 nM
IC50 (MOLM-13 cells; [3]): 100 to 1000 nM
IC50 (MOLM-13 cells; [4]): < 10 nM

O=C1CCC(N2Cc3ccc(NCCCCCn4cc(-c5cnc6ccccc6n5)cn4)cc3C2=O)C(=O)N1 (stereo not drawn) [GS-519, 3-(1-Oxo-6-((5-(4-(quinoxalin-2-yl)-1H-pyrazol-1-yl)pentyl)amino)isoindolin-2-yl)piperidine-2,6-dione]
IC50 (MV4;11 cells; [1]): > 1000 nM
IC50 (MV4;11 cells; [2]): > 1000 nM
IC50 (MOLM-13 cells; [3]): > 1000 nM
IC50 (MOLM-13 cells; [4]): > 1000 nM

O=C1CCC(N2C(=O)c3ccc(NCCCCC(F)(F)C(=O)N4CCC(n5cc(-c6cnc7ccccc7n6)cn5)CC4)cc3C2=O)C(=O)N1 (stereo not drawn) [GS-520, 5-((5,5-difluoro-6-oxo-6-(4-(4-(quinoxalin-2-yl)-1H-pyrazol-1-yl)piperidin-1-yl)hexyl)amino)-2-(2,6-dioxopiperidin-3-yl)isoindoline-1,3-dione]
IC50 (MV4;11 cells; [1]): < 10 nM
IC50 (MV4;11 cells; [2]): < 10 nM
IC50 (MOLM-13 cells; [3]): < 10 nM
IC50 (MOLM-13 cells; [4]): < 10 nM

O=C1CCC(N2C(=O)c3ccc(NCCCCCCn4cc(-c5nc6ccccc6nc5C(F)(F)F)cn4)cc3C2=O)C(=O)N1 (stereo not drawn) [GS-522, 2-(2,6-Dioxopiperidin-3-yl)-5-((6-(4-(3-(trifluoromethyl)quinoxalin-2-yl)-1H-pyrazol-1-yl)hexyl)amino)isoindoline-1,3-dione]
IC50 (MV4;11 cells; [1]): 100 to 1000 nM
IC50 (MV4;11 cells; [2]): 10 to 100 nM
IC50 (MOLM-13 cells; [3]): > 1000 nM
IC50 (MOLM-13 cells; [4]): < 10 nM

CC(C)c1nc2ccccc2nc1-c1cnn(CCCCCCNc2ccc3c(c2)C(=O)N(C2CCC(=O)NC2=O)C3=O)c1 (stereo not drawn) [GS-523, 2-(2,6-Dioxopiperidin-3-yl)-5-((6-(4-(3-isopropylquinoxalin-2-yl)-1H-pyrazol-1-yl)hexyl)amino)isoindoline-1,3-dione]
IC50 (MV4;11 cells; [5]): > 1000 nM
IC50 (MV4;11 cells; [6]): 100 to 1000 nM
IC50 (MOLM-13 cells; [7]): > 1000 nM
IC50 (MOLM-13 cells; [8]): 100 to 1000 nM

O=C1CCC(N2C(=O)c3ccc(NC4CC(n5cc(-c6cnc7ccccc7n6)cn5)C4)cc3C2=O)C(=O)N1 (stereo not drawn) [GS-524, 2-(2,6-Dioxopiperidin-3-yl)-5-((3-(4-(quinoxalin-2-yl)-1H-pyrazol-1-yl)cyclobutyl)amino)isoindoline-1,3-dione]
IC50 (MV4;11 cells; [1]): 100 to 1000 nM
IC50 (MV4;11 cells; [2]): 100 to 1000 nM
IC50 (MOLM-13 cells; [3]): > 1000 nM
IC50 (MOLM-13 cells; [4]): 10 to 100 nM

O=C1CCC(N2C(=O)c3ccc(NCCCCCC(=O)N4CCC(n5cc(-c6cnc7ccc(C8=CCNCC8)cc7n6)cn5)CC4)cc3C2=O)C(=O)N1 (stereo not drawn) [GS-525, 2-(2,6-Dioxopiperidin-3-yl)-5-((6-oxo-6-(4-(4-(7-(1,2,3,6-tetrahydropyridin-4-yl)quinoxalin-2-yl)-1H-pyrazol-1-yl)piperidin-1-yl)hexyl)amino)isoindoline-1,3-dione]
IC50 (MV4;11 cells; [1]): < 10 nM
IC50 (MV4;11 cells; [2]): < 10 nM
IC50 (MOLM-13 cells; [3]): 10 to 100 nM
IC50 (MOLM-13 cells; [4]): < 10 nM

O=C1CCC(N2C(=O)c3ccc(NCCCCCC(=O)N4CCC(n5cc(-c6cnc7ccc(N8CCNCC8)cc7n6)cn5)CC4)cc3C2=O)C(=O)N1 (stereo not drawn) [GS-526, 2-(2,6-Dioxopiperidin-3-yl)-5-((6-oxo-6-(4-(4-(7-(piperazin-1-yl)quinoxalin-2-yl)-1H-pyrazol-1-yl)piperidin-1-yl)hexyl)amino)isoindoline-1,3-dione]
IC50 (MV4;11 cells; [1]): < 10 nM
IC50 (MV4;11 cells; [2]): < 10 nM
IC50 (MOLM-13 cells; [3]): < 10 nM
IC50 (MOLM-13 cells; [4]): < 10 nM

O=C1CCC(N2C(=O)c3ccc(NC4CC5(C4)CC(n4cc(-c6cnc7ccccc7n6)cn4)C5)cc3C2=O)C(=O)N1 (stereo not drawn) [GS-527, 2-(2,6-Dioxopiperidin-3-yl)-5-((6-(4-(quinoxalin-2-yl)-1H-pyrazol-1-yl)spiro[3.3]heptan-2-yl)amino)isoindoline-1,3-dione]
IC50 (MV4;11 cells; [1]): 100 to 1000 nM
IC50 (MV4;11 cells; [2]): 100 to 1000 nM
IC50 (MOLM-13 cells; [3]): > 1000 nM
IC50 (MOLM-13 cells; [4]): 100 to 1000 nM

O=C1CCC(N2C(=O)c3ccc(NCCCCCC(=O)N4CCC(n5cc(-c6cnc7ccc(N8CCOCC8)cc7n6)cn5)CC4)cc3C2=O)C(=O)N1 (stereo not drawn) [GS-528, 2-(2,6-Dioxopiperidin-3-yl)-5-((6-(4-(4-(7-morpholinoquinoxalin-2-yl)-1H-pyrazol-1-yl)piperidin-1-yl)-6-oxohexyl)amino)isoindoline-1,3-dione]
IC50 (MV4;11 cells; [1]): < 10 nM
IC50 (MV4;11 cells; [2]): < 10 nM
IC50 (MOLM-13 cells; [3]): < 10 nM
IC50 (MOLM-13 cells; [4]): < 10 nM

CN1CCN(c2ccc3ncc(-c4cnn(CCCCCCNc5ccc6c(c5)C(=O)N(C5CCC(=O)NC5=O)C6=O)c4)nc3c2)CC1 (stereo not drawn) [GS-529, 2-(2,6-Dioxopiperidin-3-yl)-5-((6-(4-(7-(4-methylpiperazin-1-yl)quinoxalin-2-yl)-1H-pyrazol-1-yl)hexyl)amino)isoindoline-1,3-dione]
IC50 (MV4;11 cells; [1]): 10 to 100 nM
IC50 (MV4;11 cells; [2]): < 10 nM
IC50 (MOLM-13 cells; [3]): > 1000 nM
IC50 (MOLM-13 cells; [4]): < 10 nM

O=C1CCC(N2C(=O)c3ccc(NCCCCCCn4cc(-c5cnc6ccc(N7CCOCC7)cc6n5)cn4)cc3C2=O)C(=O)N1 (stereo not drawn) [GS-530, 2-(2,6-Dioxopiperidin-3-yl)-5-((6-(4-(7-morpholinoquinoxalin-2-yl)-1H-pyrazol-1-yl)hexyl)amino)isoindoline-1,3-dione]
IC50 (MV4;11 cells; [1]): 10 to 100 nM
IC50 (MV4;11 cells; [2]): < 10 nM
IC50 (MOLM-13 cells; [3]): 10 to 100 nM
IC50 (MOLM-13 cells; [4]): < 10 nM
